The values that follow come from US11883194B2, “Method and system for measuring, predicting, and optimizing human cognitive performance” (priority 2015, dated 2024).

This data set is described as follows: caffeine effect (gPD) parameters of the alertness model for PVT performance. Type of data set: in vivo, human. To be noted: beginning model parameter value (standard error). The source says:
In at least one embodiment, the model is as follows: Pc(t)=(S(t)+κC(t))*gPD(t,c) (1) where C and S denote the circadian and homeostatic processes of the two-process model at time t, respectively, and κ represents the circadian amplitude.
M0, k0, z, and ka denote an amplitude slope, a basal elimination rate, a decay constant, and an absorption rate, respectively.

As for `Cn1c(=O)c2c(ncn2C)n(C)c1=O` [caffeine], under “PVT lapse statistic”, the “M0 (amplitude slope)” value is 9.86 (1.80) g^−1, the “Z (decay constant)” value is listed as 1.63 (1.61) g^−1, the “k0 (basal elimination rate)” value was 0.49 (0.17) h^−1 and the “ka (capsule) (absorption rate)” value is on record as 2.06 (0.36) h^−1. Also, for the setting “PVT mean RT statistic”, the “M0 (amplitude slope)” value is given as 3.59 (0.66) g^−1, the “Z (decay constant)” value is 1.63 (1.61) g^−1, the “k0 (basal elimination rate)” value is 0.49 (0.17) h^−1 and the “ka (capsule) (absorption rate)” value was 2.06 (0.36) h^−1.
